The values below come from patent publication US20250032438A1, “METHOD FOR ALLEVIATING OXIDATIVE STRESS” (Nissui Corporation, priority 2021, published 2025).

SMILES strings stand for the structures.

Assay [1] has as its system Human alveolar epithelial cells. The settings on record: 800 μM hydrogen peroxide for 1 hour, compared to non-treatment section; FIG. 1.
Assay [2] has the same test system. In words: Example 2: effect of protection from oxidative stress (CCK8 survival after 800 μM hydrogen peroxide). It counts as cell-based. The settings on record: 24 h pre-incubation, 800 μM hydrogen peroxide 8 h, FIG. 2. The procedure: Human alveolar epithelial cells were seeded on a 96-well microplate at 8×10^3/well, and cultured overnight at 37° C. and 5% CO2. […] The medium was removed by suction, and then exchanged for a medium containing 800 μM hydrogen peroxide, followed by incubation at 37° C. and 5% CO2 for 8 hours. CCK8 (DOJINDO LABORATORIES) was added to each well, and the absorbance of the sample at 450 nm after 1.5 hours was measured. The relative survival rate of each treatment section was calculated, where the absorbance value of a well without hydrogen peroxide treatment was 1. • Test section 1: control • Test section 2: hydrogen peroxide • Test section 3: 10 μM arachidonic acid (C20:4n-6) ethyl ester+hydrogen peroxide • Test section 4: 30 μM arachidonic acid (C20:4n-6) ethyl ester+hydrogen peroxide • Test section 5: 10 μM C32:4n-6 ethyl ester+hydrogen peroxide • Test section 6: 30 μM C32:4n-6 ethyl ester+hydrogen peroxide

Assay [3] deals with Human retinal pigment epithelial cells. In words: Example 4: effect of protection from oxidative stress (CCK8 survival after hydrogen peroxide). The format is cell-based. The settings on record: compared to the non-treatment condition or eicosapentaenoic acid (C20:5n-3) ethyl ester at the same treatment concentration (10 or 30 μM); 24 h pre-incubation, hydrogen peroxide 24 h; FIG. 4. As for the experimental part: The medium was removed by suction, and then exchanged for a medium containing […] hydrogen peroxide, followed by incubation at 37° C. and 5% CO2 for 24 hours. CCK8 (DOJINDO LABORATORIES) was added to each well, and the absorbance of the sample at 450 nm after 1.5 hours was measured. The relative survival rate of each treatment section was calculated, where the absorbance value of a well without hydrogen peroxide treatment was 1. • Test section 1: control • Test section 2: hydrogen peroxide • Test section 3: 10 μM eicosapentaenoic acid […] ethyl ester+hydrogen peroxide • Test section 4: 30 μM eicosapentaenoic acid […] ethyl ester+hydrogen peroxide • Test section 5: 10 μM C34:5n-3 ethyl ester+hydrogen peroxide • Test section 6: 30 μM C34:5n-3 ethyl ester+hydrogen peroxide

Assay [4] shares this test system. In words: Example 3: effect of protection from oxidative stress (CCK8 survival after 300 μM hydrogen peroxide). It counts as cell-based. The settings on record: compared to the non-treatment condition or arachidonic acid (C20:4n-6) ethyl ester at the same treatment concentration (10 or 30 μM); 24 h pre-incubation, 300 μM hydrogen peroxide 24 h; FIG. 3. The procedure: The medium was removed by suction, and then exchanged for a medium containing 300 μM hydrogen peroxide, followed by incubation at 37° C. and 5% CO2 for 24 hours. CCK8 (DOJINDO LABORATORIES) was added to each well, and the absorbance of the sample at 450 nm after 1.5 hours was measured.

[5] abbreviates: compared to the section treated with hydrogen peroxide alone, 10 or 30 μM.

Turning to `OO` [hydrogen peroxide], the “relative production amount of ROS (reactive oxygen species)” value in assay [1] is “significantly larger”.
Take `CCCCC/C=C\C/C=C\C/C=C\C/C=C\CCCC(=O)OCC` [arachidonic acid (C20:4n-6) ethyl ester, reference compound]: in assay [2] (setting [5]), the “relative cell survival rate after hydrogen peroxide treatment” value (shortened to “relative cell survival rate”) is recorded as “significantly lower”.
`CCC=CCC=CCC=CCC=CCC=CCCCCCCCCCCCCCCCCCC(=O)OCC` [C34:5n-3 ethyl ester]: the “relative cell survival rate” value in assay [3] is given as “significantly higher”.
For `CCCCC/C=C\C/C=C\C/C=C\C/C=C\CCCCCCCCCCCCCCCC(=O)OCC` [C32:4n-6 ethyl ester], the “relative cell survival rate” value in assay [2] (compared to arachidonic acid (C20:4n-6) ethyl ester at the same treatment concentration (10 or 30 μM)), in assay [2] (setting [5]) and in assay [4] was “significantly higher” throughout.
